Source: patent publication US7635685B2 (priority 2003, dated 2009)
≈ marks a conversion by molar mass, not a printed value. Where “and” joins values, the source holds several entries; their conditions need not be identical. Equal values may be shown once. Read-outs that look alike come from different tables or passages of the source.

Tests used:
[1] = target: 27-mer 16S A site RNA construct (AS-wt); format: binding
[2] = tested on: B. anthracis (Sterne strain); assay: microbe, parasite or virus in culture; format: cell-based, Bacillus anthracis
E. coli strains = assay: microbe, parasite or virus in culture; format: cell-based
E. coli XL1(pET9d) = assay: microbe, parasite or virus in culture; format: cell-based
[3] = tested on: Pseudomonas aeruginosa (ATCC 27853); assay: microbe, parasite or virus in culture; format: cell-based
[4] = tested on: Salmonella virchow (SV49); assay: microbe, parasite or virus in culture; format: cell-based
[5] = tested on: Staphylococcus epidermidis; assay: microbe, parasite or virus in culture; format: cell-based
Bacillus subtilis = assay: microbe, parasite or virus in culture; format: cell-based
[6] = tested on: adenylyl(3′-5′)-adenosine (ApA); conditions: cited from earlier work
[7] = in vivo; cited from earlier work

Work on `NCC1O[C@H](O[C@@H]2C(N)C[C@@H](N)C(O)[C@H]2O[C@@H]2O[C@H](CS[C@@H]3O[C@H](CO)[C@H](O)C3O)[C@H](O[C@H]3O[C@@H](CN)[C@@H](O)C(O)C3N)C2O)C(N)[C@@H](O)[C@@H]1O` (stereo partly shown) [Compound XI] yielded a Kd ([1]; read-out: Kd) of 1 ± 0.2 µM, an MIC ([2]; Bacillus anthracis, 18 h) of 2 µg/mL (≈ 2.62 µM) and an MIC (E. coli strains; Escherichia coli) of 30 to 40 µg/mL (≈ 39.3 to 52.4 µM). The MIC (E. coli strains; Escherichia coli, ATCC25922) was 25 to 40 µg/mL (≈ 32.8 to 52.4 µM), the MIC (E. coli XL1(pET9d); Escherichia coli) was > 200 µg/mL and the MIC ([3]; Pseudomonas aeruginosa, ATCC27853) was 200 to 400 µg/mL (≈ 262 to 524 µM). The MIC ([4]; Salmonella enterica) was > 250 µg/mL, the MIC ([5]; Staphylococcus epidermidis, ATCC12228) was 1.5 to 3 µg/mL (≈ 1.97 to 3.93 µM) and the MIC (Bacillus subtilis; Bacillus subtilis, ATCC6633) was 1 to 2.5 µg/mL (≈ 1.31 to 3.28 µM).
For `NCC1O[C@H](OC2C(O)[C@H](OC3C(O)[C@H](N)CC(N)[C@H]3O[C@H]3OC(CN)[C@@H](O)C(O)C3N)O[C@@H]2CO[C@@H]2OC(CO)[C@@H](O)C(O)C2O)C(N)C(O)[C@@H]1O` (stereo partly shown) [Compound XII], the Kd ([1]; read-out: Kd) was 1.1 ± 0.2 µM and the MIC ([2]; Bacillus anthracis, 18 h) was 8 µg/mL (≈ 10.3 µM).
For neomycin B, the Kd ([1]; read-out: binding constant Kd to 16S A site RNA) was 0.3 µM, the MIC [2] was 0.25 µg/mL and the MIC (E. coli strains) was 4 to 5.5 µg/mL and 8 to 10 µg/mL. For the same compound, the MIC (E. coli XL1(pET9d)) was 50 to 60 µg/mL, the MIC [3] was 55 to 60 µg/mL and the MIC [4] was 200 to 250 µg/mL. For the same compound, the MIC [5] was 0.3 to 0.4 µg/mL, the MIC (Bacillus subtilis) was 0.8 to 0.9 µg/mL and the “first-order rate constants lower than those reported for natural ribozymes” value [6] was “over 1000 fold”. For the same compound, the “hydrolysis of ApA faster than 1,3-propanediamine” value [6] was 3 fold and the LD50 [7] was 24 mg/kg.
In the case of `NC[C@H]1O[C@H](O[C@H]2[C@H](O[C@@H]3O[C@H](CO)[C@@H](O)[C@H]3O)[C@@H](O)[C@H](N)C[C@@H]2N)[C@H](N)[C@@H](O)[C@@H]1O` [ribostamycin], the LD50 [7] is listed as 260 mg/kg.
In the case of `NC[C@@H]1O[C@H](O[C@H]2[C@@H](O)[C@H](O[C@@H]3[C@@H](O)[C@H](N)C[C@H](N)[C@H]3O[C@H]3O[C@H](CO)[C@@H](O)[C@H](O)[C@H]3N)O[C@@H]2CO)[C@H](N)[C@@H](O)[C@@H]1O` [paromomycin], the LD50 [7] is listed as 160 mg/kg.
For `NC[C@H]1O[C@H](O[C@H]2[C@H](O)[C@@H](O[C@H]3O[C@H](CO)[C@@H](O)[C@H](N)[C@H]3O)[C@H](N)C[C@@H]2N)[C@H](O)[C@@H](O)[C@@H]1O` [KAN], the MIC (E. coli XL1(pET9d)) was 260 to 270 µg/mL, the MIC [3] was 400 to 500 µg/mL and the MIC [4] was 500 to 570 µg/mL.
For `NC[C@@H]1O[C@H](O[C@H]2[C@@H](O)[C@H](O[C@@H]3[C@@H](O)[C@H](N)C[C@H](N)[C@H]3O[C@H]3O[C@H](CO)[C@@H](O)C[C@H]3N)O[C@@H]2CO)[C@H](N)[C@@H](O)[C@@H]1O[C@H]1O[C@H](CO)[C@@H](O)[C@H](O)[C@@H]1O` [lividomycin], the LD50 [7] is listed as 280 mg/kg.
